Tests used:
[1] = system: PG9; assay: ELISA of recombinant gp120 monomers with PG9; format: binding, human; settings: gp120 monomer of the named strain
[2] = system: Fab PG9; assay: Saturation transfer difference NMR of glycan binding to PG9; set-up: species or system human; settings: for interaction with PG9 by STD NMR: 1.5 mM glycan, 15 μM Fab PG9
Description: FIGS. 6A-6B illustrate two glycans and a strand comprise a V1V2 site-of-vulnerability. Glycan, electrostatic, and sequence-independent interactions allow PG9 to recognize a glycopeptide site on V1V2. A, Site characteristics in CAP45 strain of HIV-1. Glycans 160 and 156 (173 with ZM109) are highlighted in light grey, and strands B and C are highlighted in dark grey, with the rest of V1V2 in semi-transparent white. The interactive surface of V1V2 with PG9 is shown, colored according the local electrostatic potential as in FIG. 5B. The contribution of each structural element to that surface is provided as a percentage of the total. […] C, Langmuir binding curve used to obtain the KD a function of glycan concentration (A signals correspond to N-acetyl protons, which are shown in the boxed area of the upper panel). D, Stacked STD NMR spectra as a function of Man5GlcNAc2-Asn concentration.
FIG. 25 illustrates binding of GlcNAc2 to PG9 by NMR. STD (lower trace) and reference (upper trace) NMR spectra of 1.5 mM GlcNAc2 in the presence of 15 μM Fab PG9.
FIG. 26 illustrates binding of mannopentaose to PG9 by NMR. STD (lower trace) and reference (upper trace) NMR spectra of 1.5 mM mannopentaose (structure shown above) in the presence of 15 μM Fab PG9.
All NMR experiments were carried out at 298 K on Bruker avance 600 or avance 500 instruments equipped with a triple resonance cryo-probe incorporating gradients in z-axis. 1D STD spectra were acquired by selectively irradiating at −1 ppm and +40 ppm as on- and off-resonance frequencies, respectively, using a train of 50 ms Gaussian-shaped radio frequency pulses separated by 1 ms delays and an optimized power level of 57 db. During NMR experiments water suppression was achieved by binomial 3-9-19 pulse sequence and protein resonances were suppressed by applying 10 ms T1ρ filter. Samples were prepared in 20 mM sodium phosphate buffer containing 50 mM sodium chloride at pH 6.8. The NMR data were processed and analyzed by using TOPSPIN 2.1. […]

Compound	PG9 recognition in the gp120 monomer context [1]	other results
16055: gp120 monomer of HIV-1 Clade C strain 16055, SEQ ID NO: 6 [compound 16055]	retained PG9 recognition	–
CAP45: gp120 monomer of HIV-1 Clade C strain CAP45, SEQ ID NO: 3	retained PG9 recognition	–
ZM109: gp120 monomer of HIV-1 Clade C strain ZM109, SEQ ID NO: 2	retained PG9 recognition	–
TRJO: gp120 monomer of HIV-1 Clade B strain TRJO, SEQ ID NO: 7	retained PG9 recognition	–
CC(=O)N[C@H]1[C@H](O[C@H]2[C@H](O)[C@@H](NC(C)=O)C(O)O[C@@H]2CO)O[C@H](CO)[C@@H](O[C@@H]2O[C@H](CO[C@H]3O[C@H](CO[C@H]4O[C@H](CO)[C@@H](O)[C@H](O)[C@@H]4O)[C@@H](O)[C@H](O[C@H]4O[C@H](CO)[C@@H](O)[C@H](O)[C@@H]4O)[C@@H]3O)[C@@H](O)[C@H](O[C@H]3O[C@H](CO)[C@@H](O)[C@H](O)[C@@H]3O)[C@@H]2O)[C@@H]1O (some centres unmarked) [oligomannose-5]	–	interaction with PG9 by STD NMR [2]: weak interactions
CC(=O)N[C@H]1[C@H](O[C@H]2[C@H](O)[C@@H](NC(C)=O)C(O)O[C@@H]2CO)O[C@H](CO)[C@@H](O)[C@@H]1O (some centres unmarked) [(N-acetylglucosamine)2]	–	interaction with PG9 by STD NMR [2]: not observed
ZM53: gp120 monomer of HIV-1 Clade C strain ZM53, SEQ ID NO: 4	retained PG9 recognition	–
CC(=O)N[C@@H]1[C@@H](O)[C@H](O[C@@H]2O[C@H](CO)[C@@H](O[C@@H]3O[C@H](CO[C@H]4O[C@H](CO[C@H]5O[C@H](CO)[C@@H](O)[C@H](O)[C@@H]5O)[C@@H](O)[C@H](O[C@H]5O[C@H](CO)[C@@H](O)[C@H](O)[C@@H]5O)[C@@H]4O)[C@@H](O)[C@H](O[C@H]4O[C@H](CO)[C@@H](O)[C@H](O)[C@@H]4O)[C@@H]3O)[C@H](O)[C@H]2NC(C)=O)[C@@H](CO)O[C@H]1NC(=O)C[C@H](N)C(=O)O [Asn-(N-actylglucosamine)2(mannose)5]	–	Kd ([2]; titration series, Langmuir binding curve, read-out: affinity for PG9): 1600 ± 900 µM

Reference: patent publication US20140348865A1, “[…] ON AN HIV-1 V1V2 SITE-OF-VULNERABILITY” (The United States of America, as represented by the …, priority 2011, published 2014)
